# From PubChem BioAssay (NCI)
#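 Dose response: 5 concentrations. Exposure: 48 h. Format: 96-well plates. Endpoint: linear interpolation; highest concentration if not reached. Definition used: TGI = concentration required for complete inhibition of growth.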
# Experiments:
# Assay in all cases: DTP human tumour cell line panel, 48 h
# [1] = test system: NCI-H522 lung
# [2] = test system: HT29 colon
# [3] = test system: UO-31 renal
# [4] = test system: HOP-92 NSCLC
# [5] = test system: SNB-19 CNS
# [6] = test system: SK-OV-3 ovarian
# [7] = test system: SF-295 CNS
# [8] = test system: HS 578T breast
# [9] = test system: CAKI-1 renal
# [10] = test system: DU-145 prostate
# [11] = test system: MDA-MB-231 breast
# [12] = test system: U251 CNS
# [13] = test system: K-562 leukemia
# [14] = test system: MALME-3M melanoma
# [15] = test system: A498 renal
# [16] = test system: T-47D breast
# [17] = test system: NCI/ADR-RES ovarian
# [18] = test system: HCC-2998 colon
# [19] = test system: COLO 205 colon
# [20] = test system: SK-MEL-5 melanoma
# [21] = test system: RPMI-8226 leukemia
# [22] = test system: BT-549 breast
# [23] = test system: SR leukemia
# [24] = test system: MDA-MB-435
# [25] = test system: SK-MEL-28 melanoma
# [26] = test system: NCI-H460 lung
# [27] = test system: RXF 393 renal
# [28] = test system: MCF7 breast
# [29] = test system: HCT-15 colon
# [30] = test system: OVCAR-8 ovarian
# [31] = test system: IGROV1 ovarian
# [32] = test system: OVCAR-4 ovarian
# [33] = test system: ACHN renal
# [34] = test system: PC-3 prostate
# [35] = test system: NCI-H23 lung
# [36] = test system: SF-268 CNS
# [37] = test system: SNB-75 CNS
# [38] = test system: MOLT-4 leukemia
# [39] = test system: HCT-116 colon
# [40] = test system: SF-539 CNS
# [41] = test system: UACC-257 melanoma
# [42] = test system: SK-MEL-2 melanoma
# [43] = test system: 786-0 renal
# [44] = test system: OVCAR-5 ovarian
# [45] = test system: SN12C renal
# [46] = test system: LOX IMVI melanoma
# [47] = test system: EKVX NSCLC
# [48] = test system: MDA-N
# [49] = test system: NCI-H226 lung
# [50] = test system: HL-60(TB) leukemia
# [51] = test system: OVCAR-3 ovarian
# [52] = test system: A549 NSCLC
# [53] = test system: SW-620 colon
# [54] = test system: TK-10 renal
# [55] = test system: HOP-62 NSCLC
# [56] = test system: M14 melanoma
# [57] = test system: KM12 colon
# [58] = test system: CCRF-CEM leukemia
# [59] = test system: UACC-62 melanoma
structure (smiles),measurement,setting,value
COC(=O)/C(C#N)=C(\Nc1ccccc1)N1CCCC1,TGI,[1],> 100 µM
same,TGI,[2],> 100 µM
same,TGI,[3],> 100 µM
same,TGI,[4],> 100 µM
same,TGI,[5],> 100 µM
same,TGI,[6],> 100 µM
same,TGI,[7],> 100 µM
same,TGI,[8],> 100 µM
same,TGI,[9],> 100 µM
same,TGI,[10],> 100 µM
same,TGI,[11],> 100 µM
same,TGI,[12],> 100 µM
same,TGI,[13],> 100 µM
same,TGI,[14],> 100 µM
same,TGI,[15],> 100 µM
same,TGI,[16],> 100 µM
same,TGI,[17],> 100 µM
same,TGI,[18],> 100 µM
same,TGI,[19],> 100 µM
same,TGI,[20],> 100 µM
same,TGI,[21],> 100 µM
same,TGI,[22],> 100 µM
same,TGI,[23],> 100 µM
same,TGI,[24],> 100 µM
same,TGI,[25],> 100 µM
same,TGI,[26],> 100 µM
same,TGI,[27],> 100 µM
same,TGI,[28],> 100 µM
same,TGI,[29],> 100 µM
same,TGI,[30],> 100 µM
same,TGI,[31],> 100 µM
same,TGI,[32],> 100 µM
same,TGI,[33],> 100 µM
same,TGI,[34],> 100 µM
same,TGI,[35],> 100 µM
same,TGI,[36],> 100 µM
same,TGI,[37],> 100 µM
same,TGI,[38],> 100 µM
same,TGI,[39],> 100 µM
same,TGI,[40],> 100 µM
same,TGI,[41],> 100 µM
same,TGI,[42],> 100 µM
same,TGI,[43],> 100 µM
same,TGI,[44],> 100 µM
same,TGI,[45],> 100 µM
same,TGI,[46],> 100 µM
same,TGI,[47],> 100 µM
same,TGI,[48],> 100 µM
same,TGI,[49],> 100 µM
same,TGI,[50],> 100 µM
same,TGI,[51],> 100 µM
same,TGI,[52],> 100 µM
same,TGI,[53],> 100 µM
same,TGI,[54],> 100 µM
same,TGI,[55],> 100 µM
same,TGI,[56],> 100 µM
Cc1nnc(N)nc1C/C=C/C(Sc1ccc(Cl)cc1)c1ccccc1 (stereo unspecified),TGI,[1],3.69 µM
same,TGI,[2],25.6 µM
same,TGI,[3],12.4 µM
same,TGI,[4],23.7 µM
same,TGI,[5],22.7 µM
same,TGI,[6],24.4 µM
same,TGI,[7],10.9 µM
same,TGI,[8],24.6 µM
same,TGI,[9],> 39.5 µM
same,TGI,[10],> 45.4 µM
same,TGI,[11],> 33.1 µM
same,TGI,[12],26.9 µM
same,TGI,[13],> 100 µM
same,TGI,[14],14.6 µM
same,TGI,[15],23.9 µM
same,TGI,[16],> 48.8 µM
same,TGI,[17],> 34.2 µM
same,TGI,[18],23.4 µM
same,TGI,[19],> 41.9 µM
same,TGI,[20],> 100 µM
same,TGI,[21],> 42.9 µM
same,TGI,[22],27.7 µM
same,TGI,[57],15.7 µM
same,TGI,[23],> 100 µM
same,TGI,[24],14.9 µM
same,TGI,[25],> 38.1 µM
same,TGI,[26],17.3 µM
same,TGI,[27],16.2 µM
same,TGI,[28],> 34.7 µM
same,TGI,[29],15.9 µM
same,TGI,[30],34.8 µM
same,TGI,[58],3.23 µM
same,TGI,[31],5.37 µM
same,TGI,[32],19.6 µM
same,TGI,[33],18.2 µM
same,TGI,[34],14.6 µM
same,TGI,[35],22.2 µM
same,TGI,[36],21.6 µM
same,TGI,[37],16.5 µM
same,TGI,[38],> 32 µM
same,TGI,[39],> 27.8 µM
same,TGI,[41],17 µM
same,TGI,[42],21 µM
same,TGI,[43],11.4 µM
same,TGI,[44],23 µM
same,TGI,[45],> 48.1 µM
same,TGI,[46],7.7 µM
same,TGI,[47],16.1 µM
same,TGI,[48],> 95.9 µM
same,TGI,[49],4.64 µM
same,TGI,[50],6.13 µM
same,TGI,[52],> 64.7 µM
same,TGI,[53],> 39.7 µM
same,TGI,[54],21.9 µM
same,TGI,[55],19.6 µM
same,TGI,[56],20.7 µM
same,TGI,[59],10.1 µM
C/C=C/[C@@H]1[C@H]2C(=O)[C@]3(Cl)[C@@H](/C=C/C)[C@@H]3C(=O)[C@@]12Cl,TGI,[1],> 100 µM
same,TGI,[2],> 100 µM
same,TGI,[3],> 100 µM
same,TGI,[4],> 100 µM
same,TGI,[5],> 100 µM
same,TGI,[6],> 100 µM
same,TGI,[7],> 100 µM
same,TGI,[8],> 100 µM
same,TGI,[9],> 100 µM
same,TGI,[10],> 100 µM
same,TGI,[11],> 100 µM
same,TGI,[12],> 100 µM
same,TGI,[13],> 100 µM
same,TGI,[14],> 100 µM
same,TGI,[15],> 100 µM
same,TGI,[16],> 100 µM
same,TGI,[17],> 100 µM
same,TGI,[18],> 100 µM
same,TGI,[19],> 100 µM
same,TGI,[20],> 100 µM
same,TGI,[22],> 100 µM
same,TGI,[57],> 100 µM
same,TGI,[23],> 100 µM
same,TGI,[24],> 100 µM
same,TGI,[25],> 100 µM
same,TGI,[26],> 100 µM
same,TGI,[27],> 100 µM
same,TGI,[28],> 100 µM
same,TGI,[29],> 100 µM
same,TGI,[30],> 100 µM
same,TGI,[58],> 100 µM
same,TGI,[31],> 100 µM
same,TGI,[32],> 100 µM
same,TGI,[33],> 100 µM
same,TGI,[34],> 100 µM
same,TGI,[35],> 100 µM
same,TGI,[36],> 100 µM
same,TGI,[37],> 100 µM
same,TGI,[38],> 100 µM
same,TGI,[39],> 100 µM
same,TGI,[40],> 100 µM
same,TGI,[41],> 100 µM
same,TGI,[42],> 100 µM
same,TGI,[43],> 100 µM
same,TGI,[44],> 100 µM
same,TGI,[45],> 100 µM
same,TGI,[46],> 100 µM
same,TGI,[47],> 100 µM
same,TGI,[48],> 100 µM
same,TGI,[49],> 100 µM
same,TGI,[50],> 100 µM
same,TGI,[51],> 100 µM
same,TGI,[52],> 100 µM
same,TGI,[53],> 100 µM
same,TGI,[54],> 100 µM
same,TGI,[55],> 100 µM
same,TGI,[56],> 100 µM
same,TGI,[59],> 100 µM
